Reference: article PMC10049699, “Identification and Empiric Evaluation of New Inhibitors of the Multidrug Transporter P-Glycoprotein (ABCB1)” (International Journal of Molecular Sciences, 2023)
“Also recorded” adds a separate entry of the source.

Experiments:
Format in all cases: cell-based
[1] = biological target: T1, ABCB1 (Homo sapiens, UniProt P08183); experiment: calcein-AM drug transport (accumulation) assay in live Flp-In-ABCB1 cells, flow cytometry; conditions: for IC50: Flp-In-ABCB1 cells, 30 min, n = 3 biological repeats, read-out: IC50 for inhibition of ABCB1 transport activity; for mean bottom plateau value of ABCB1 activity curve (efficacy): ratio of calcein content of ABCB1 non-expressing cells to whole population, full inhibition at 1.0; for effect on ABCB1: preliminary data, up to a concentration of 100 nM
T1 construct: expressed in transfected cells
Method: We have previously integrated a single copy of pcDNA5/FRT-ABCB1-12His into the genome of Flp-In 293 cells to generate the Flp-In-ABCB1 cell line. To prevent possible drug–drug interactions during the transport assay, the Flp-In-ABCB1 cells were cultured in the absence of hygromycin, which is normally used to select for the continued expression of the hygromycin resistance gene carried on the pcDNA5/FRT plasmid. […] We also used the non-toxic cell-permeant dye calcein-AM as a transport substrate of ABCB1 [35, 36].
The concentration of calcein-AM was titrated until the ABCB1-positive cells began to accumulate calcein. […] This concentration was used in all further live cell transport assays. To test whether the assay could be applied to drug inhibition studies, we incubated the Flp-In-ABCB1 cells with calcein-AM in the presence of the third-generation inhibitor tariquidar.
These are the cells that no longer express ABCB1 (population […] in Figure 2B) due either to deletion of the plasmid from the genome or, perhaps more likely, silencing of the locus by chromatin condensation. These cells survive in the absence of hygromycin selection, but they are useful as they provide an internal negative control that can be easily identified in the single channel histogram at the lowest level of inhibitor. Transport activity of the ABCB1 was, thus, calculated using the fold difference in median drug accumulation by this ABCB1 non-expressing population G4 at the lowest concentration of inhibitor versus the median drug accumulation across all cells (population G5), as described in Equation (1). (1) Median drug accumulation in ABCB1 non−expressing cells G4/Median drug accumulation in the whole population G5
(§1) Flp-In-293 and Flp-In-ABCB1-12His cells were grown as monolayers in Dulbecco’s modified Eagle medium (DMEM; ThermoFisher Sci, Waltham, MA, USA) supplemented with 10% foetal bovine serum (FBS; ThermoFisher Sci, Waltham, MA, USA). The cell lines were incubated in a humidified incubator at a temperature of 37 °C in an atmosphere of 5% CO2. For the drug transport assay, cells (3 × 10^5 per well) were seeded in a 24-well, flat-bottomed plate (Sarstedt AG and Co., Nümbrecht, Germany) in 500 μL growth medium and incubated for 24 h, as above. The medium was aspirated, and the cells were washed with the transport buffer (phenol-red free DMEM, with 1% FBS). Next, the cells were incubated with calcein-AM (Invitrogen, Waltham, MA, USA) at 250 nM or OG-taxol (Invitrogen, Waltham, MA, USA) at 0.4 μM in 200 μL transport buffer for 30 min at 37 °C in the presence or absence of inhibitor (Tariquidar was purchased from MedChemExpress (Monmouth Junction, NJ, USA) and the test inhibitors were from Chembridge Corporation (San Diego, CA, USA); Table 2). All test compounds, tariquidar, and calcein-AM were solubilized in DMSO and further diluted in transport buffer for the transport assay. The concentration of DMSO in the final solution never exceeded 1.1%, at which concentration it has no apparent effect on the cells or the function of ABCB1. The medium was then aspirated, and cells were washed with ice-cold transport buffer and harvested with 25 μL trypsin (TrypLE express enzyme; ThermoFisher Sci, Waltham, MA, USA). The cells were recovered in a flow cytometry tube in 300 μL ice-cold transport buffer for flow cytometry using a BD LSR II flow cytometer (Becton Dickinson, Franklin Lakes, NJ, USA).
In order to correlate ABCB1 expression with calcein-AM efflux activity, a slightly different order was used, as described previously. Briefly, the cells were first detached from the well and incubated with saturating levels of primary antibody 4E3 (0.5 μg, Abcam, Cambridge, UK) in 100 μL transport buffer on ice for 30 min. […]

[2] = biological target: T1, ABCB1; experiment: OG-taxol efflux inhibition assay in Flp-In-ABCB1 cells, flow cytometry; conditions: 100 nM test compound, OG-taxol 0.4 μM
From the text: (§2) The four compounds are potent inhibitors of calcein-AM transport, but can they inhibit the efflux of chemotherapeutic drugs. To address this question, we first substituted a fluorescent derivative of the anticancer drug taxol for calcein-AM in a transport assay. […] We next tested whether the drugs would sensitise the Flp-In-ABCB1 cells to the clinically relevant form of taxol. The Flp-In-ABCB1 cells and their parental Flp-In cells were challenged over a three-day period with a range of concentrations of taxol in the presence and absence of test compounds at 100 nM concentration.
as §1

[3] = test system: Flp-In parental cells; experiment: Taxol challenge assay, parental cells / growth with inhibitor alone; conditions: for effect on the growth of the Flp-In parental cells: test compound at 100 nM; for cytotoxicity of test compound: 100 nM, three-day (72 h) period, cell line not specified
From the text: as §2
(§3) Flp-In-293 and Flp-In-ABCB1-12His cells (1 × 10^4) were seeded into a 96-well dish in 100 μL of medium, as above. Taxol (Cambridge Bioscience, Cambridge, UK) was added to a final concentration ranging from 0 nM to 10 μM in the presence or absence of inhibitors at 100 nM. The cells were cultured for a further 72 h, after which the medium was aspirated, and the cells were detached with 30 μL TrypLE Express (ThermoFisher Sci, Waltham, MA, USA) before quenching with 75 μL transport buffer and transfer to flow cytometry tubes. Cells of normal size and granularity, gated on the zero-drug condition and then applied to all samples, were counted in an ACEA NovoCyte flow cytometer (Agilent Technologies, Santa Clara, CA, USA). Cell number data were analysed in Graphpad PRISM (MacOS Version 9.4.1; GraphPad Software, San Diego, CA, USA). Curve fitting and statistical analysis was performed as above.

[4] = test system: Flp-In-ABCB1 cells; experiment: Taxol challenge assay (resensitisation to taxol); conditions: test compound at 100 nM, three-day period
From the text: as §2, §3

[5] = Taxol challenge assay (resensitisation to taxol); conditions: human; Flp-In-ABCB1 (ABCB1 wt) cells, three-day culture, n = 3; read-out: IC50 for taxol (cell number) in the absence of inhibitor
From the text: as §2, §3

[6] = ratio of IC50 values, calcein-AM assay

T1 sequence (P08183 whole entry): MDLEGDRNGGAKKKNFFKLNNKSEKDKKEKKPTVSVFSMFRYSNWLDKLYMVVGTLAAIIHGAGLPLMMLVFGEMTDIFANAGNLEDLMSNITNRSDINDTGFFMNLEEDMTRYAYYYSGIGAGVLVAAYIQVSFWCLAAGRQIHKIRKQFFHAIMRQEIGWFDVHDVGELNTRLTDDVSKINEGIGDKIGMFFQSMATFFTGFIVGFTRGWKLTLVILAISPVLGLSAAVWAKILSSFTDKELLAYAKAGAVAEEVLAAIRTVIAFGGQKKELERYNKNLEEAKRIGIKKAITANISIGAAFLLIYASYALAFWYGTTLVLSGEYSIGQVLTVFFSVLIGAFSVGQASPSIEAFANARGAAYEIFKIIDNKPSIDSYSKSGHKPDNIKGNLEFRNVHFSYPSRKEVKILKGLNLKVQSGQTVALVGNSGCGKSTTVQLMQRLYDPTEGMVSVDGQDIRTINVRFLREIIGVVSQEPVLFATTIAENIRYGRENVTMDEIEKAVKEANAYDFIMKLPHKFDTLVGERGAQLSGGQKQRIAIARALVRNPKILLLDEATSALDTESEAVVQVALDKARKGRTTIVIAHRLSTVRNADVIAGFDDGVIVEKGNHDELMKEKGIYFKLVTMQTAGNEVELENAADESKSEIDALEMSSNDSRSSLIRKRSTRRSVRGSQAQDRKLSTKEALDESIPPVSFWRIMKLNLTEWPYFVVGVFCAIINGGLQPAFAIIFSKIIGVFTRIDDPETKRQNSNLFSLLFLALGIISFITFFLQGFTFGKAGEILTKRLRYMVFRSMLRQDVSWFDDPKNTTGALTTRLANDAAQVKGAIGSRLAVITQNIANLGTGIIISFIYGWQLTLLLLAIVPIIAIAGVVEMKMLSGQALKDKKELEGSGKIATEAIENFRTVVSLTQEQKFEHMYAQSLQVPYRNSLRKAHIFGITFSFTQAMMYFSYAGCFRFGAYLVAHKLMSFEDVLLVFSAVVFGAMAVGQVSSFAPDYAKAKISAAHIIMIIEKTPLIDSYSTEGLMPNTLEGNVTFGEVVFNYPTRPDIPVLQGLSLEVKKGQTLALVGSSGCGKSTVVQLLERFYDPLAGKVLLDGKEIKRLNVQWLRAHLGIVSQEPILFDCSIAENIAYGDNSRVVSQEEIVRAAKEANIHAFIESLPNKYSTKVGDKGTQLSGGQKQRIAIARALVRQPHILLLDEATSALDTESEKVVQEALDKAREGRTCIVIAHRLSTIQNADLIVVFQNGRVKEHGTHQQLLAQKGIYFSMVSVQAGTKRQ

| Structure (SMILES) | IC50 ([1]; 250 nM calcein-AM) [nM] | fold less potent than tariquidar [1, 6] [fold] | mean bottom plateau value of ABCB1 activity curve (efficacy) [1] | inhibition of OG-taxol efflux by ABCB1 [2] | further results |
| --- | --- | --- | --- | --- | --- |
| O=C1CCC(CCNCc2ccccc2)N1Cc1ccc(-n2cccn2)cc1 (stereo not drawn) [A, 5-[2-(benzylamino)ethyl]-1-[4-(1H-pyrazol-1-yl)benzyl]-2-pyrrolidinone] | 1.4 | 12 | 1.0 | inhibition of OG-taxol efflux | effect on the growth of the Flp-In parental cells ([3]; three-day culture): no effect; also recorded: do not inhibit cell growth; resensitisation of Flp-In-ABCB1 cells to taxol [4]: resensitised |
| Cc1cccc(N2CCN(CC(=O)Nc3nnc(CCN(C)C)s3)CC2)c1 [D, N-{5-[2-(dimethylamino)ethyl]-1,3,4-thiadiazol-2-yl}-2-[4-(3-methylphenyl)piperazin-1-yl]acetamide] | 23.6 | 200 | 0.58 | inhibition of OG-taxol efflux | fold less potent than test compound 'A' [1, 6]: 17 fold; effect on the growth of the Flp-In parental cells ([3]; three-day culture): no effect; also recorded: do not inhibit cell growth; resensitisation of Flp-In-ABCB1 cells to taxol [4]: resensitised |
| Cc1ccc(N2CCN(c3cc(C4CC(N)C4)nc(N)n3)CC2)cc1C (stereo not drawn) [E, 4-(3-aminocyclobutyl)-6-[4-(3,4-dimethylphenyl)piperazin-1-yl]pyrimidin-2-amine] | 14.6 | 128 | 0.93 | inhibition of OG-taxol efflux | cytotoxicity of test compound [3]: did kill cells; also recorded: cytotoxic |
| Cc1nnc(NS(=O)(=O)c2ccc3c(c2)CN(C(=O)[C@H](N)C(C)C)CC3)s1 [C, N-(5-methyl-1,3,4-thiadiazol-2-yl)-2-D-valyl-1,2,3,4-tetrahydroisoquinoline-7-sulfonamide] | – | – | – | – | effect on ABCB1 ([1]; 250 nM calcein-AM): no effect |
| COc1cc2c(cc1OC)CN(CCc1ccc(NC(=O)c3cc(OC)c(OC)cc3NC(=O)c3cnc4ccccc4c3)cc1)CC2 [Tariquidar, N-[2-[[4-[2-(6,7-dimethoxy-3,4-dihydro-1H-isoquinolin-2-yl)ethyl]phenyl]carbamoyl]-4,5-dimethoxyphenyl]quinoline-3-carboxamide, reference compound] | 0.114 | – | 0.78 | – | inhibition of ABCB1 (calcein accumulation to level of parental Flp-In cells) ([1]; 1 nM tariquidar, 250 nM calcein-AM): fully inhibited |
| Cc1ccc(CNC(=O)C2CCN(c3cc(C4CC(N)C4)nc(C)n3)CC2)cc1.Cl.Cl (stereo not drawn) [B, 1-[6-(3-aminocyclobutyl)-2-methylpyrimidin-4-yl]-N-(4-methylbenzyl)piperidine-4-carboxamide dihydrochloride] | – | – | – | – | effect on ABCB1 ([1]; 250 nM calcein-AM): no effect |
| CC(=O)O[C@H]1C(=O)[C@@]2(C)[C@H]([C@H](OC(=O)c3ccccc3)[C@]3(O)C[C@H](OC(=O)[C@H](O)[C@@H](NC(=O)c4ccccc4)c4ccccc4)C(C)=C1C3(C)C)[C@]1(OC(C)=O)CO[C@@H]1C[C@@H]2O [taxol, reference compound] | – | – | – | – | IC50 ([3]; 72 h, Flp-In parental cells, three-day culture, n = 3, read-out: IC50 for taxol (cell number) in the absence of inhibitor): 5 nM; IC50 at 72 h [5]: 125 nM |
| Cc1cccc(N2CCN(c3cc(C4CC(N)C4)nc(C4CC4)n3)CC2)c1C.Cl.Cl (stereo not drawn) [F, (3-{2-cyclopropyl-6-[4-(2,3-dimethylphenyl)-1-piperazinyl]-4-pyrimidinyl}cyclobutyl)amine dihydrochloride] | 4.8 | 42 | 0.36 | inhibition of OG-taxol efflux | cytotoxicity of test compound [3]: did kill cells; also recorded: cytotoxic |
